For data set [1], the target named is Aldo-keto reductase family 1 member B1 (Rattus norvegicus, UniProt P07943). The data set can be described thus: Inhibition of Wistar rat lens aldose reductase using D,L-glyceraldehyde as substrate incubated for 1 min measured for 4 mins by spectrophotometry.
Data set [2] deals with Aldo-keto reductase family 1 member B1 (Rattus norvegicus) (UniProt P07943). The data set can be described thus: Inhibition of Wistar rat lens aldose reductase using D,L-glyceraldehyde as substrate at 100 uM incubated for 1 min measured for 4 mins by spectrophotometry.
Data set [3] in a line: Inhibition of Wistar rat kidney aldehyde reductase using D-glucuronate as substrate at 100 uM by spectrophotometry.
Data set [4] is described as follows: Inhibition of Wistar rat kidney aldehyde reductase using D-glucuronate as substrate at 10 uM by spectrophotometry.
The target of data set [5] is Aldo-keto reductase family 1 member B1 (Rattus norvegicus) (UniProt P07943). Briefly: Inhibition of Wistar rat lens aldose reductase using D,L-glyceraldehyde as substrate at 10 uM incubated for 1 min measured for 4 mins by spectrophotometry.
Data set [6] in a line: Octanol-phosphate buffer partition coefficient, log D of the compound at 100 uM at pH 7.4 at RT after 1 hr by shake flask method. Type of data set: physicochemical.
Data set [7] concerns the target Aldo-keto reductase family 1 member B10 (Homo sapiens, UniProt O60218). Briefly: Inhibition of human AKR1B10 using D-glucuronate as substrate by spectrophotometry.

For orientation: inhibition means the change of the read-out against control, counted positive when it falls. A high value points to a strong effect. The term logD denotes lipophilicity at a set pH, counting ionised and neutral species. A high value points to a more lipophilic compound.

Aldo-keto reductase family 1 member B10, sequence (O60218 whole entry): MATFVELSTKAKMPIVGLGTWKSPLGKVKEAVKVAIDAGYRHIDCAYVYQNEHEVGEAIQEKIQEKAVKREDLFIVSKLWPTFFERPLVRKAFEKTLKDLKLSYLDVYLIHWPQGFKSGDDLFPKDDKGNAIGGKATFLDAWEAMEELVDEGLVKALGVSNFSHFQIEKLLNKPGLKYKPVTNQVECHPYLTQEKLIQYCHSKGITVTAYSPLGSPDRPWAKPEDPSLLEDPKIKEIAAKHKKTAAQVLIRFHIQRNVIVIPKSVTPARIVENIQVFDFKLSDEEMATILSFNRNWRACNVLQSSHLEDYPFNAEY

Turning to `O=C(O)Cn1cc(Cc2nc3c(F)c(F)cc(F)c3s2)c2ccccc21` [LIDORESTAT], the IC50 in data set [1] (read-out: IC50) came to 0.005 µM. Take `CCCNC(=O)CSc1nnc2c3cc(C)ccc3n(CC(=O)O)c2n1`: the IC50 in data set [1] (read-out: IC50) is 0.33 µM. In turn, `Sc1nnc2c(n1)[nH]c1ccccc12` registered an inhibition in data set [2] of 4.41%. In turn, `O=C(O)Cn1cc(N2CCOCC2)c2ccccc21` had an inhibition in data set [3] of 32.5%. The IC50 in data set [1] (read-out: IC50) was 34.5 µM. As to `O=C(O)Cn1c2ccccc2c2nn3c(nc4ccccc43)nc21`, the IC50 in data set [1] (read-out: IC50) came out at 9.95 µM. In data set [4], the inhibition is 15.1%. As to `Cc1cc(C)c(NC(=O)CSc2nnc3c4ccccc4n(CC(=O)O)c3n2)c(C)c1`, in data set [1] (read-out: IC50), the IC50 was found to be 4.06 µM. In data set [4], this molecule registered an inhibition of 23.5%. For the molecule `O=C(O)Cn1c2c(c3ccccc31)CCC2`, in data set [1] (read-out: IC50), the IC50 was 2.87 µM. For `O=C(O)Cn1c2ccccc2c2cn[nH]c(=O)c21`, the inhibition in data set [3] stood at 49%. Moreover, the IC50 in data set [1] (read-out: IC50) is 11.5 µM. In turn, `CCN(CC)Cc1cn(CC(=O)O)c2ccccc12` registered an inhibition in data set [3] of 38%. The IC50 in data set [1] (read-out: IC50) is 30.1 µM.

On to `O=C(O)Cn1c2ccccc2c2nc3ccccc3nc21`, for which the IC50 in data set [1] (read-out: IC50) is 2.75 µM. `O=C(O)CSc1nnc2c(n1)[nH]c1ccccc12` had an inhibition in data set [5] of 3.46%.

As to `CC(C)(C)C(=O)c1cn(CC(=O)O)c2ccccc12`, the IC50 in data set [1] (read-out: IC50) is 13.8 µM.

Take `O=C(O)Cn1c2ccccc2c2nnc(Sc3ccccc3F)nc21`: the IC50 was 2.24 µM in data set [1] (read-out: IC50) and 2.19 µM in data set [1] (read-out: pIC50 (converted)). Further, the inhibition in data set [4] was 1.18%.

`CCN(CC)Cc1cn(CCC(=O)O)c2ccccc12`: the inhibition in data set [3] was 6.65%; in data set [2] it was 19.9%.

Regarding `O=C(O)Cn1ccc2ccccc21`, the IC50 in data set [1] (read-out: IC50) is 7.3 µM. `O=C(O)Cn1c2ccccc2c2nnc(S)nc21` had a logD at 1 h, 100 µM in data set [6] of -1.9. Further, in data set [7], the IC50 amounted to 21.4 µM. In data set [3], `O=C(O)Cn1cc(N2CCCC2)c2ccccc21` had an inhibition of 19.2%. The IC50 in data set [1] (read-out: IC50) was 46.5 µM. Consider `O=C(O)CCn1ccc2ccccc21`, for which the inhibition came out at 11.8% in data set [3] and 53.5% in data set [2]. For `CC(C)Sc1nnc2c3ccccc3n(CC(=O)O)c2n1`, the IC50 in data set [1] (read-out: IC50) is 2.05 µM. Turning to `Cc1c(CN(C)C)c2ccccc2n1CC(=O)O`, the inhibition in data set [3] was 22.3%. Also, the IC50 in data set [1] (read-out: IC50) turned out to be 42.2 µM.

The record behind these values is ChEMBL document CHEMBL3421614, “Identification of novel aldose reductase inhibitors based on carboxymethylated mercaptotriazinoindole scaffold” (J Med Chem, 2015).
